From patent US20070128217A1 (priority 2003, published 2007)

How the values were obtained:
[1] = test system: antibodies in sera from SARS patients (sera 1a, 1b, 2, 6, 37, 62, London, SARS-yellow, SARS-green); assay type: binding, human; set-up: Binding of serum 6 to linear peptides of protein X1 of SARS-CoV Urbani / Binding of serum 37 to linear peptides of protein X1 of SARS-CoV Urbani / Binding of serum 6 to looped/cyclic peptide (PEPSCAN-ELISA) / Binding of serum 37 to looped/cyclic peptide (PEPSCAN-ELISA) / Binding of serum 37 to looped/cyclic peptides of protein X1 of SARS-CoV Urbani / Binding of serum 6 to linear peptides of protein X2 / Binding of serum 37 to linear peptides of protein X2 / Binding of serum 37 to looped/cyclic peptides of protein X2 of SARS-CoV Urbani / Binding of serum 6 to linear peptides of protein M of SARS-CoV Urbani / Binding of serum 37 to linear peptides of protein M of SARS-CoV Urbani / Binding of serum 6 to looped/cyclic peptides of protein M of SARS-CoV Urbani / Binding of serum 37 to looped/cyclic peptides of protein M of SARS-CoV Urbani / Binding of serum 6 to linear peptides of protein X3 of SARS-CoV Urbani / Binding of serum 37 to linear peptides of protein X3 of SARS-CoV Urbani / Binding of serum 37 to looped/cyclic peptides of protein X3 of SARS-CoV Urbani / Binding of serum 6 to linear peptides of protein X4 of SARS-CoV Urbani / Binding of serum 37 to linear peptides of protein X4 of SARS-CoV Urbani / Binding of serum 37 to looped/cyclic peptides of protein X4 of SARS-CoV Urbani / Binding of serum 6 to linear peptides of protein X5 of SARS-CoV Urbani / Binding of serum 37 to linear peptides of protein X5 of SARS-CoV Urbani / Binding of serum 37 to looped/cyclic peptides of protein X5 of SARS-CoV Urbani / Binding of serum 6 to linear peptides of protein N of SARS-CoV Urbani / Binding of serum 37 to linear peptides of protein N of SARS-CoV Urbani / Binding of serum 6 to linear peptide (PEPSCAN-ELISA) / Binding of serum 1a to looped/cyclic peptides of protein N of SARS-CoV Urbani / Binding of serum 1b to looped/cyclic peptides of protein N of SARS-CoV Urbani / Binding of serum 2 to looped/cyclic peptides of protein N of SARS-CoV Urbani / Binding of serum 6 to looped/cyclic peptides of protein N of SARS-CoV Urbani / Binding of serum 37 to looped/cyclic peptides of protein N of SARS-CoV Urbani / Binding of serum 62 to looped/cyclic peptides of protein N of SARS-CoV Urbani / Binding of serum London to looped/cyclic peptides of protein N of SARS-CoV Urbani / Binding of serum SARS-green to looped/cyclic peptides of protein N of SARS-CoV Urbani: unit not given here
[2] = test system: control sera (pooled serum of ten healthy LUMC hospital workers; commercial negative donor pooled serum from the Dutch bloodbank); assay type: binding, human
[3] = test system: rabbit serum obtained by immunizing a rabbit with the SARS-CoV strain Frankfurt 1; assay type: binding; set-up: Binding of a rabbit serum to linear peptides / Binding of a rabbit serum to looped peptides / Rabbit serum linear peptides / Rabbit serum looped peptides / Binding of a rabbit serum to linear peptides of protein N of SARS-CoV Urbani (Rabbit serum linear peptides) / Binding of a rabbit serum to looped/cyclic peptides of protein N of SARS-CoV Urbani (Rabbit serum looped peptides): unit not given here

| Sequence | Binding of serum 1a to linear peptides of protein X2 [1] | Binding of serum 1a to looped/cyclic peptides of protein X2 of SARS-CoV Urbani [1] | Binding of serum 1b to linear peptides of protein X2 [1] | Binding of serum 1b to looped/cyclic peptides of protein X2 of SARS-CoV Urbani [1] | Binding of serum 2 to linear peptides of protein X2 [1] | Binding of serum 2 to looped/cyclic peptides of protein X2 of SARS-CoV Urbani [1] | Binding of serum 6 to linear peptides of protein X2 [1] | Binding of serum 6 to looped/cyclic peptides of protein X2 of SARS-CoV Urbani [1] | Binding of serum 37 to linear peptides of protein X2 [1] | Binding of serum 37 to looped/cyclic peptides of protein X2 of SARS-CoV Urbani [1] | Binding of serum 62 to looped/cyclic peptides of protein X2 of SARS-CoV Urbani [1] | Binding of serum London to looped/cyclic peptides of protein X2 of SARS-CoV Urbani [1] | Binding of serum SARS-green to looped/cyclic peptides of protein X2 of SARS-CoV Urbani [1] | Binding of serum SARS-yellow to looped/cyclic peptides of protein X2 of SARS-CoV Urbani [1] | Binding of Control Serum Blood-Bank to Looped peptides [2] | Binding of Control serum Blood-bank to linear peptides [2] | Binding of Control serum LUMC to linear peptides [2] | Binding of Control serum LUMC to looped peptides [2] | Binding of a rabbit serum to linear peptides [3] | Binding of a rabbit serum to looped peptides [3] | other results |
| --- | --- | --- | --- | --- | --- | --- | --- | --- | --- | --- | --- | --- | --- | --- | --- | --- | --- | --- | --- | --- | --- |
| LSLLKVTAFQHQNSK | 0.4 | 0.3 | 0.1 | 0.2 | 0.1 | 0.1 | 0.2 | 0.1 | 0.4 | 0.2 | 0.3 | 0.1 | 0.1 | 0.2 | 0.4 | 0.1 | 0.4 | 0.3 | 0.4 | 0.3 | Binding of serum 62 to linear peptides of protein X2 [1]: 0.2; Binding of serum London to linear peptides of protein X2 [1]: 0.2; Binding of serum SARS-green to linear peptides of protein X2 [1]: 0.1; Binding of serum SARS-yellow to linear peptides of protein X2 [1]: 0.0 |
| TQSTALQELLIQQWI | 0.7 | 0.6 | 0.6 | 0.5 | 0.3 | 0.4 | 0.7 | 0.2 | 0.6 | 0.6 | 0.6 | 0.2 | 0.5 | 0.5 | 0.7 | 0.8 | 0.6 | 0.6 | 0.3 | 0.4 | Binding of serum 62 to linear peptides of protein X2 [1]: 0.6; Binding of serum London to linear peptides of protein X2 [1]: 0.7; Binding of serum SARS-green to linear peptides of protein X2 [1]: 0.6; Binding of serum SARS-yellow to linear peptides of protein X2 [1]: 0.7 |
| CKHKKVSTNLCTHSF | – | 0.7 | – | 0.7 | – | 0.4 | – | 0.3 | – | 0.6 | 0.5 | 0.3 | 0.4 | 0.9 | 0.1 | 0.8 | 1.0 | 0.4 | 0.3 | 0.5 | Recognition of the peptide by sera of SARS-CoV infected individuals, and form (linear, looped/cyclic) in which it is recognized [1]: recognized in linear form |
